Results from patent publication US8324245B2, “Quinoline derivative and quinazoline derivative inhibiting self-phosphorylation of hepatocytus proliferator receptor, and medicinal composition containing the same” (Kyowa Hakko Kirin Co., Ltd., priority 2001, dated 2012).

Target: T1, met (HGF receptor) in human gastric cancer cells MKN45 (Homo sapiens, UniProt P08581)
T1 construct: endogenous in cells; host or cells: MKN45 human gastric cancer cells
Test: Inhibitory activity against met-autophosphorylation using ELISA method (2), MKN45 cells, HGF-independent
Format: cell-based
Method: Cells were cultured with RPMI medium containing 0.1% fetal calf serum in 96-well flat-bottom plate in an amount of 3×10^4 per well, and were incubated at 37° C. overnight. The medium was then replaced by a fresh RPMI medium containing 0.1% fetal calf serum. A solution of the test compound in dimethyl sulfoxide was added to each well, and the incuvation was continued at 37° C. for additional one hr. The medium was removed, the cells were washed with phosphate buffered saline (pH 7.4), and 50 μl of a lysis buffer (20 mM HEPES (pH 7.4), 150 mM NaCl, 0.2% Triton X-100, 10% glycerol, 5 mM sodium orthovanadylate, 5 mM disodium ethylenediaminetetraacetate, and 2 mM Na4P2O7) was then added thereto. The mixture was shaken at 4° C. for 2 hr to prepare a cell extract.
Separately, phosphate buffered saline (50 μl, pH 7.4) containing 5 μg/ml of anti-phospho-tyrosine antibody (PY20; purchased from Transduction Laboratories) was added to a microplate for ELISA (Maxisorp; purchased from NUNC), followed by gentle agitation at 4° C. overnight to coat the surface of the wells with the antibody. After washing of the plate, 300 μl of a blocking solution was added, followed by gentle agitation at room temperature for 2 hr to perform blocking. After washing, the whole quantity of the cell extract was transferred to the wells, and the plate was then allowed to stand at 4° C. overnight. After washing, an anti-HGF receptor antibody (h-Met (C-12), purchased from Santa Cruz Biotechnology) was allowed to react at room temperature for one hr, and, after washing, a peroxidase-labeled anti-rabbit Ig antibody (purchased from Amersham) was allowed to react at room temperature for one hr. After washing, a chromophoric substrate for peroxidase (purchased from Sumitomo Bakelite Co., Ltd.) was added thereto to initiate a reaction. After a suitable level of color development, a reaction termination solution was added to stop the reaction, and the absorbance at 450 nm was measured with a microplate reader.

T1 sequence (P08581 25-1390): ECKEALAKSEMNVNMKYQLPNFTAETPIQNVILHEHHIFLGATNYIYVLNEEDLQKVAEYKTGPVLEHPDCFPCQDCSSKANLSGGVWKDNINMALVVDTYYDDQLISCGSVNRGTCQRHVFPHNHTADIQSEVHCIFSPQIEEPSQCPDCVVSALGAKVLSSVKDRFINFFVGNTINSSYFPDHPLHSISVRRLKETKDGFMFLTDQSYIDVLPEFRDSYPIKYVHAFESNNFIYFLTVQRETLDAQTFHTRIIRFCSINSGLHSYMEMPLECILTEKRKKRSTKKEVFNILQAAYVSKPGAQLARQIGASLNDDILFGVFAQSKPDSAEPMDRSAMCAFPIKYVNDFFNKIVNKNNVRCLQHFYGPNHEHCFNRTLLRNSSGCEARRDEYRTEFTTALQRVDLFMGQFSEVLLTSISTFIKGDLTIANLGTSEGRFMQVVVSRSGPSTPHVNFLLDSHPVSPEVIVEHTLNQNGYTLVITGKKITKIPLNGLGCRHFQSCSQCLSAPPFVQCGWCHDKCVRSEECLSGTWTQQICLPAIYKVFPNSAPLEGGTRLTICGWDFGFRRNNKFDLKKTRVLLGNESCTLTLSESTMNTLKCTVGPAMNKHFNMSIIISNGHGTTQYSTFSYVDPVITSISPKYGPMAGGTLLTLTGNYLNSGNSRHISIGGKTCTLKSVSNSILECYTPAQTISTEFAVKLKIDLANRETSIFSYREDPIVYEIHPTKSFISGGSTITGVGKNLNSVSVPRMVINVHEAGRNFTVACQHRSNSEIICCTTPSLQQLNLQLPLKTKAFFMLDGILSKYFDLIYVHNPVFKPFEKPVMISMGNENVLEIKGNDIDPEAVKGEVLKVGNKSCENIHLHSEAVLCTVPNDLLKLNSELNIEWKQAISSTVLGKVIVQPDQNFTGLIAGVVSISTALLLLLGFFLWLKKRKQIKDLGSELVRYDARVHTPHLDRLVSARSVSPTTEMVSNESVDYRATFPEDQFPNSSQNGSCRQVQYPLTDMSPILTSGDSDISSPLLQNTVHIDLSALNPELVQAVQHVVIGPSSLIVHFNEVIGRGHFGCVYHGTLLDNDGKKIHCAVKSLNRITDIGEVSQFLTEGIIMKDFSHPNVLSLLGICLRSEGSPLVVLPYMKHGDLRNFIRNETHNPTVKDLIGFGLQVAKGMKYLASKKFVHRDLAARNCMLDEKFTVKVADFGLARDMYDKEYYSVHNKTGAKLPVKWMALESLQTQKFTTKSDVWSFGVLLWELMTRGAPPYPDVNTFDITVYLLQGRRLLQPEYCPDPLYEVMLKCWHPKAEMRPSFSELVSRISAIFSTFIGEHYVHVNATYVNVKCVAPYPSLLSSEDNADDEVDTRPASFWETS

SMILES	IC50 [nM]
COc1cc2nccc(Oc3ccc(NC(=S)NC(=O)C4C[C@@H]4c4ccccc4)cc3)c2cc1OC (stereo in doubt) [Example 150, 1-[4-(6,7-dimethoxyquinolin-4-yloxy)phenyl]-3-(2-phenylcyclopropanecarbonyl)thiourea]	1280
COc1cc2nccc(Oc3ccc(NC(=O)NC(=O)CN4CCc5ccccc54)cc3Cl)c2cc1OC [Example 8, 1-[3-chloro-4-(6,7-dimethoxyquinolin-4-yloxy)-phenyl]-3-[2-(2,3-dihydro-1H-1-indol-1-yl)acetyl]-urea]	298
COc1cc2c(Oc3ccc(NC(=O)NC(=O)Cc4ccccc4)cc3F)ccnc2cc1OCCCCN1CCN(C)CC1 [Example 12, 1-(3-fluoro-4-{6-methoxy-7-[4-(4-methyl-piperazin-1-yl)-butoxy]quinolin-4-yloxy}phenyl)-3-phenylacetylurea]	199
COc1cc2nccc(Oc3ccc(NC(=O)NC(=O)Cc4ccccc4)cc3F)c2cc1OC [Example 17, 1-[4-(6,7-dimethoxyquinolin-4-yloxy)-3-fluoro-phenyl]-3-phenylacetylurea]	30.7
COc1cc2nccc(Oc3ccc(NC(=O)NC(=O)Cc4ccc(F)cc4)cc3F)c2cc1OC [Example 23, 1-[4-(6,7-dimethoxyquinolin-4-yloxy)-3-fluoro-phenyl]-3-[2-(4-fluorophenyl)acetyl]urea]	26.3
COc1cc2nccc(Oc3ccc(NC(=O)NC(=O)Cc4cccs4)cc3)c2cc1OC [Example 29, 1-[4-(6,7-dimethoxyquinolin-4-yloxy)phenyl]-3-(2-thiophen-2-ylacetyl)urea]	37.1
COc1cc2nccc(Oc3ccc(NC(=O)NC(=O)Cc4cccs4)cc3F)c2cc1OC [Example 31, 1-[4-(6,7-dimethoxyquinolin-4-yloxy)-3-fluoro-phenyl]-3-(2-thiophen-2-ylacetyl)urea]	34.1
COc1cc2nccc(Oc3ccc(NC(=O)NC(=O)Cc4cccs4)cc3Cl)c2cc1OC [Example 32, 1-[3-chloro-4-(6,7-dimethoxyquinolin-4-yloxy)-phenyl]-3-(2-thiophen-2-ylacetyl)urea]	171
COc1cc2nccc(Oc3ccc(NC(=O)NC(=O)Cc4ccc(F)cc4F)c(F)c3)c2cc1OC [Example 33, 1-[2-(2,4-difluorophenyl)acetyl]-3-[4-(6,7-dimethoxyquinolin-4-yloxy)-2-fluorophenyl]urea]	61.8
COc1cc2nccc(Oc3ccc(NC(=O)NC(=O)Cc4ccc(F)cc4F)cc3F)c2cc1OC [Example 34, 1-[2-(2,4-difluorophenyl)acetyl]-3-[4-(6,7-dimethoxyquinolin-4-yloxy)-3-fluorophenyl]urea]	46.3
COc1cc2nccc(Oc3ccc(NC(=O)NC(=O)Cc4ccc(F)c(F)c4)cc3F)c2cc1OC [Example 35, 1-[2-(3,4-difluorophenyl)acetyl]-3-[4-(6,7-dimethoxyquinolin-4-yloxy)-3-fluorophenyl]urea]	41.4
COc1cc2nccc(Oc3ccc(NC(=O)NC(=O)Cc4cccc(F)c4)cc3F)c2cc1OC [Example 37, 1-[4-(6,7-dimethoxyquinolin-4-yloxy)-3-fluoro-phenyl]-3-[2-(3-fluorophenyl)acetyl]urea]	58.4
COc1cc(Oc2ccnc3cc(OC)c(OC)cc23)ccc1NC(=O)NC(=O)Cc1ccc(F)cc1 [Example 38, 1-[4-(6,7-dimethoxyquinolin-4-yloxy)-2-methoxyphenyl]-3-[2-(4-fluorophenyl)acetyl]urea]	29.1
COc1cc2nccc(Oc3ccc(NC(=O)NC(=O)Cc4ccc(F)c(F)c4)cc3)c2cc1OC [Example 39, 1-[2-(3,4-difluorophenyl)acetyl]-3-[4-(6,7-dimethoxyquinolin-4-yloxy)phenyl]urea]	114

Other lines, results leading:

IC50 [nM]	SMILES
75	COc1cc2nccc(Oc3ccc(NC(=O)NC(=O)Cc4ccccc4)cc3)c2cc1OC [Example 4, 1-[4-(6,7-dimethoxyquinolin-4-yloxy)phenyl]-3-phenyl-acetylurea]
18.9	COc1cc2nccc(Oc3ccc(NC(=O)CC(=O)Nc4ccc(F)cc4)cc3)c2cc1OC [Example 5, N-[4-(6,7-dimethoxyquinolin-4-yloxy)phenyl]-N′-(4-fluorophenyl)malonamide]
31.6	COc1cc2nccc(Oc3ccc(NC(=O)CC(=O)Nc4ccc(F)cc4F)cc3Cl)c2cc1OC [Example 6, N-[3-chloro-4-(6,7-dimethoxyquinolin-4-yloxy)-phenyl]-N′-(2,4-difluorophenyl)malonamide]
292	COc1cc2nccc(Oc3ccc(NC(=O)NC(=O)CSC4CCCC4)cc3)c2cc1OC [Example 7, 1-(2-cyclopentylsulfanylacetyl)-3-[4-(6,7-dimethoxyquinolin-4-yloxy)phenyl]urea]
141	COc1cc2c(Oc3ccc(NC(=O)NC(=O)Cc4ccccc4)cc3F)ccnc2cc1OCCN1CCCCC1 [Example 13, 1-{3-fluoro-4-[6-methoxy-7-(2-piperidin-1-yl-ethoxy)quinolin-4-yloxy]phenyl}-3-phenylacetylurea]
291	COc1cc2c(Oc3ccc(NC(=O)NC(=O)Cc4ccccc4)cc3F)ccnc2cc1OCCCCl [Example 14, 1-{4-[7-(3-chloro-propoxy)-6-methoxyquinolin-4-yloxy]-3-fluorophenyl}-3-phenylacetylurea]
302	COc1cc2nccc(Oc3ccc(NC(=O)C(C)C(=O)Nc4ccc(F)cc4F)cc3)c2cc1OC (stereo not shown) [Example 15, N-(2,4-difluorophenyl)-N′-[4-(6,7-dimethoxy-quinolin-4-yloxy)phenyl]-2-methylmalonamide]
32.8	COc1cc2nccc(Oc3ccc(NC(=O)NC(=O)Cc4ccccc4)c(F)c3)c2cc1OC [Example 16, 1-[4-(6,7-dimethoxyquinolin-4-yloxy)-2-fluoro-phenyl]-3-phenylacetylurea]
150	COc1cc2nccc(Oc3ccc(NC(=O)NC(=O)Cc4ccccc4)cc3Cl)c2cc1OC [Example 18, 1-[3-chloro-4-(6,7-dimethoxyquinolin-4-yloxy)-phenyl]-3-phenylacetylurea]
104	COc1cc2nccc(Oc3ccc(NC(=O)NC(=O)Cc4ccsc4)c(F)c3)c2cc1OC [Example 19, 1-[4-(6,7-dimethoxyquinolin-4-yloxy)-2-fluoro-phenyl]-3-(2-thiophen-3-ylacetyl)urea]
31.8	COc1cc2nccc(Oc3ccc(NC(=O)NC(=O)Cc4ccsc4)cc3F)c2cc1OC [Example 20, 1-[4-(6,7-dimethoxyquinolin-4-yloxy)-3-fluoro-phenyl]-3-(2-thiophen-3-ylacetyl)urea]
188	COc1cc2nccc(Oc3ccc(NC(=O)NC(=O)Cc4ccsc4)cc3Cl)c2cc1OC [Example 21, 1-[3-chloro-4-(6,7-dimethoxyquinolin-4-yloxy)-phenyl]-3-(2-thiophen-3-ylacetyl)urea]
24.6	COc1cc2nccc(Oc3ccc(NC(=O)NC(=O)Cc4ccc(F)cc4)cc3)c2cc1OC [Example 22, 1-[4-(6,7-dimethoxyquinolin-4-yloxy)phenyl]-3-[2-(4-fluorophenyl)acetyl]urea]
27.7	COc1cc2nccc(Oc3ccc(NC(=O)NC(=O)Cc4ccc(F)cc4)cc3Cl)c2cc1OC [Example 24, 1-[3-chloro-4-(6,7-dimethoxyquinolin-4-yloxy)phenyl]-3-[2-(4-fluorophenyl)acetyl]urea]
140	COc1cc2nccc(Oc3ccc(NC(=O)NC(=O)Cc4ccccc4F)cc3)c2cc1OC [Example 25, 1-[4-(6,7-dimethoxyquinolin-4-yloxy)phenyl]-3-[2-(2-fluorophenyl)acetyl]urea]
126	COc1cc2nccc(Oc3ccc(NC(=O)NC(=O)Cc4ccccc4F)c(F)c3)c2cc1OC [Example 26, 1-[4-(6,7-dimethoxyquinolin-4-yloxy)-2-fluoro-phenyl]-3-[2-(2-fluorophenyl)acetyl]urea]
80	COc1cc2nccc(Oc3ccc(NC(=O)NC(=O)Cc4ccccc4F)cc3F)c2cc1OC [Example 27, 1-[4-(6,7-dimethoxyquinolin-4-yloxy)-3-fluorophenyl]-3-[2-(2-fluorophenyl)acetyl]urea]
162	COc1cc2nccc(Oc3ccc(NC(=O)NC(=O)Cc4ccccc4F)cc3Cl)c2cc1OC [Example 28, 1-[3-chloro-4-(6,7-dimethoxyquinolin-4-yloxy)-phenyl]-3-[2-(2-fluorophenyl)acetyl]urea]
35.1	COc1cc2nccc(Oc3ccc(NC(=O)NC(=O)Cc4cccs4)c(F)c3)c2cc1OC [Example 30, 1-[4-(6,7-dimethoxyquinolin-4-yloxy)-2-fluoro-phenyl]-3-(2-thiophen-2-ylacetyl)urea]
198	COc1cc2nccc(Oc3ccc(NC(=O)NC(=O)Cc4cccc(F)c4)c(F)c3)c2cc1OC [Example 36, 1-[4-(6,7-dimethoxyquinolin-4-yloxy)-2-fluoro-phenyl]-3-[2-(3-fluorophenyl)acetyl]urea]
